The record followed here is patent publication US20120190669A1, “OXINDOLE COMPOUNDS” (CYLENE PHARMACEUTICALS, INC., priority 2008, published 2012).

The structures appear in SMILES notation. Where two headings read alike, the source gives them in different places.

In one assay the target is recombinant PIM-1 (Homo sapiens, UniProt P11309). In words: PIM-1 kinase assay (radiometric, 15 uM ATP, DMSO 4%). Type of assay: biochemical.
The next assay relates to K-562. In words: Alamar Blue cell proliferation assay, K-562. Type of assay: cell-based. To be noted: Homo sapiens. The procedure: (§1) A representative cell-proliferation assay protocol using Alamar Blue dye (stored at 4° C., use 20 ul per well) is described hereafter.
(§2) 96-Well Plate Setup and Compound Treatment
(§3) a. Split and trypsinize cells.
(§4) b. Count cells using hemocytometer.
(§5) c. Plate 4,000-5,000 cells per well in 100 μl of medium and seed into a 96-well plate according to the following plate layout. Add cell culture medium only to wells B10 to B12. Wells B1 to B9 have cells but no compound added.
(§6) d. Add 100 μl of 2× drug dilution to each well in a concentration shown in the plate layout above. At the same time, add 100 μl of media into the control wells (wells 1310 to B12). Total volume is 200 μl/well.
(§7) e. Incubate four (4) days at 37° C., 5% CO2 in a humidified incubator.
(§8) f. Add 20 μl Alamar Blue reagent to each well.
(§9) g. Incubate for four (4) hours at 37° C., 5% CO2 in a humidified incubator.
(§10) h. Record fluorescence at an excitation wavelength of 544 nm and emission wavelength of 590 nm using a microplate reader.
(§11) In the assays, cells are cultured with a test compound for approximately four days, the dye is then added to the cells and fluorescence of […] dye is detected after approximately four hours. Different types of cells can be utilized in the assays (e.g., HCT-116 human colorectal carcinoma cells, PC-3 human prostatic cancer cells and MiaPaca human pancreatic carcinoma cells).
Background: Alamar Blue is a resazurin reagent that responds to reducing activity.

In assay [1] the test system is MiaPaca human pancreatic carcinoma cells. The assay is described as follows: Alamar Blue cell proliferation assay, MiaPaCa. Type of assay: cell-based. The procedure: as §1, §2, §3, §4, §5, §6, §7, §8, §9, §10, §11
Assay [2] deals with PC-3 human prostatic cancer cells. The assay is described as follows: Alamar Blue cell proliferation assay, PC3. Type of assay: cell-based. The procedure:
as §1, §2, §3, §4, §5, §6, §7, §8, §9, §10, §11

For another assay, the system named is MDAMB-231. In words: Alamar Blue cell proliferation assay, MDAMB-231. Type of assay: cell-based. To be noted: Homo sapiens, MDA-MB-231, Table 3, read-out: AB: MDAMB-231. Here is the method: as §1, §2, §3, §4, §5, §6, §7, §8, §9, §10, §11
In a further assay the test system is MV-4-11. The assay is described as follows: Alamar Blue cell proliferation assay, MV-4-11. Type of assay: cell-based. The settings on record: Homo sapiens. Here is the method:
as §1, §2, §3, §4, §5, §6, §7, §8, §9, §10, §11

The next assay has as its system THP-1. In words: Alamar Blue cell proliferation assay, THP-1. The assay is classed as cell-based. To be noted: Homo sapiens, Table 4, read-out: AB: THP-1. The procedure: as §1, §2, §3, §4, §5, §6, §7, §8, §9, §10, §11
For another assay, the system named is phospho FLT3. The assay is described as follows: phospho FLT3 cell-based data. To be noted: Table 4.
Another assay concerns phospho BAD. In words: phospho BAD cell-based data. The settings on record: Table 4.
The target in the next assay is T1, recombinant human FLT-3 (Homo sapiens, UniProt P36888).
T1 sequence (P36888 27-993): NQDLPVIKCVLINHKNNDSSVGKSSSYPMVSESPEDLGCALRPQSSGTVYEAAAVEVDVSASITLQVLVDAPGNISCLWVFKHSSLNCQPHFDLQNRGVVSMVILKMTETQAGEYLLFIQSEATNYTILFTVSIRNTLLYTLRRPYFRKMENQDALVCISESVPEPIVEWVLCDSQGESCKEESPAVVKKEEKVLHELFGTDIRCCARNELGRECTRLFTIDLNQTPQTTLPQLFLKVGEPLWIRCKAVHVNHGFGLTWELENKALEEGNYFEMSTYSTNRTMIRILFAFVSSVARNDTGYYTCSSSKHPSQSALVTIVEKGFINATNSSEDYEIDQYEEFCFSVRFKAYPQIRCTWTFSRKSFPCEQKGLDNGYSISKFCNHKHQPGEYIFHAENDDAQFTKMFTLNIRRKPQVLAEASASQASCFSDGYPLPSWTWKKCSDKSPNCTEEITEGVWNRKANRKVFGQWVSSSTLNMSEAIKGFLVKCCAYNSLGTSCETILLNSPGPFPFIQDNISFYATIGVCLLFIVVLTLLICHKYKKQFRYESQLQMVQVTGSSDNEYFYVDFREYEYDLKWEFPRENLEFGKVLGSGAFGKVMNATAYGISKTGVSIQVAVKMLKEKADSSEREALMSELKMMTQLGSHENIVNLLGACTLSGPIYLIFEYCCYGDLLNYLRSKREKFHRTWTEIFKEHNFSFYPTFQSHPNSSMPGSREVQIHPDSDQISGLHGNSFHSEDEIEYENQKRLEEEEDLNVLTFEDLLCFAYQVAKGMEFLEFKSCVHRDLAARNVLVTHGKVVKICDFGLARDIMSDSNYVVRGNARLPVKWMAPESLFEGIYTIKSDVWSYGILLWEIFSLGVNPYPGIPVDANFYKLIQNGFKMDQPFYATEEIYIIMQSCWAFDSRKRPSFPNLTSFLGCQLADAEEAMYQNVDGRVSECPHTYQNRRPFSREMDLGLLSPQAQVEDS
The assay is described as follows: FLT-3 kinase activity, cell free in vitro assay. To be noted: Table 7; 10 uM ATP; read-out: FLT3_RB: IC50. The assay is classed as biochemical.

Assay [3] concerns HCT-116 human colorectal carcinoma cells. In words: Alamar Blue cell proliferation assay, HCT-116. To be noted: Table 4, read-out: AB: HCT-116. Type of assay: cell-based. The procedure:
as §1, §2, §3, §4, §5, §6, §7, §8, §9, §10, §11

Setting [4] is: Table 3, DMSO 4%, read-out: PIM1: IC50 (DMSO 4%).
The mark [5] stands for this setting: K562, Table 3, read-out: AB: K-562.
Setting [6] is: MIA PaCa-2, Table 3, read-out: AB: MiaPaCa.
Where [7] appears, read: MV4-11, Table 3, read-out: AB: MV-4-11.
[8] abbreviates: K562, Table 4, read-out: AB: K-562.
[9] abbreviates: MIA PaCa-2, Table 4, read-out: AB: MiaPaCa.
[10] abbreviates: MV4-11, Table 4, read-out: AB: MV-4-11.
Setting [11] is: Table 4, 15 um ATP, read-out: PIM1: IC50 (15 um ATP).

recombinant PIM-1, sequence (P11309 whole entry): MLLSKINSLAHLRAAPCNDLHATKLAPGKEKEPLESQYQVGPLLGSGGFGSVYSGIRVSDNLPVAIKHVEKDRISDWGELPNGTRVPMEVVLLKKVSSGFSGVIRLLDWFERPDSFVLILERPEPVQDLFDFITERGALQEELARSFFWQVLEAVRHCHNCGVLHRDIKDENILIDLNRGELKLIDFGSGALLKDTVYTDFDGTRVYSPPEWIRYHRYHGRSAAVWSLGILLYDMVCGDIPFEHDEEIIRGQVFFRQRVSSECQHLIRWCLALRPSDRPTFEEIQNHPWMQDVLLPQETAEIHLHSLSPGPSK

Take `O=C1Nc2ccc(Cl)cc2/C1=C/c1ccc(-c2ccc3cc(O)ccc3c2)o1`: the IC50 is less than 1000 nM on recombinant PIM-1 (setting [4]); greater than 10000 nM in the assay on K-562 (setting [5]); greater than 10000 nM in assay [1] (setting [6]); 12000 nM in assay [2] (Table 3, read-out: AB: PC3); greater than 10000 nM in the assay on MDAMB-231; 189 nM in the assay on MV-4-11 (setting [7]).
In the case of `NC(=O)c1cccc(-c2ccc(/C=C3\C(=O)Nc4ccc(Cl)cc43)o2)c1`, the IC50 is less than 1000 nM at recombinant PIM-1 (setting [4]); greater than 10000 nM in the assay with K-562 (setting [5]); greater than 10000 nM in assay [1] (setting [6]); greater than 30000 nM in [2] (Table 3, read-out: AB: PC3); greater than 10000 nM in the assay with MDAMB-231; 1910 nM with MV-4-11 (setting [7]).
For `CC(=O)Nc1cccc(-c2ccc(/C=C3\C(=O)Nc4ccc(Cl)cc43)o2)c1`, the IC50 was less than 1000 nM at recombinant PIM-1 (setting [4]); greater than 10000 nM with K-562 (setting [5]); greater than 10000 nM in assay [1] (setting [6]); 2680 nM in assay [2] (Table 3, read-out: AB: PC3); greater than 10000 nM in the assay on MDAMB-231; 748 nM in the assay on MV-4-11 (setting [7]).
As to `O=C1Nc2ccc(Cl)cc2/C1=C\c1ccc(-c2cccc(C(=O)NCCCO)c2)o1`, the IC50 is greater than 10000 nM in the assay on K-562 (setting [8]); greater than 30000 nM in assay [1] (setting [9]); greater than 30000 nM in assay [2] (Table 4, read-out: AB: PC3); 608 nM in the assay with MV-4-11 (setting [10]); greater than 30000 nM in the assay on THP-1; greater than 10000 nM with phospho FLT3. The IC50 in the assay on phospho BAD turned out to be 3500 nM.
On to `O=C1Nc2ccccc2/C1=C\c1ccc(-c2ccc(C(=O)NCCN3CCCC3)cc2)o1`, for which, at recombinant human FLT-3, the IC50 is 99 nM.
As for `CN(C)CCNC(=O)c1cccc(-c2ccc(/C=C3/C(=O)Nc4ccc(Cl)cc43)o2)c1` [drawing 232], the IC50 was 289 nM on recombinant PIM-1 (setting [11]); 367 nM with K-562 (setting [8]); 1940 nM in assay [1] (setting [9]); 2990 nM in the assay on MV-4-11 (setting [10]); 1190 nM in assay [3]; 5300 nM in the assay on phospho FLT3. This molecule showed an IC50 in the assay with phospho BAD of 444 nM.
In the case of `O=C1Nc2ccc(Cl)cc2/C1=C\c1ccc(-c2cccc(C(=O)NCCCn3ccnc3)c2)o1` [drawing 233], the IC50 on recombinant PIM-1 (setting [11]) is 376 nM; with K-562 (setting [8]), 288 nM; in [1] (setting [9]), 233 nM; in the assay on MV-4-11 (setting [10]), 67 nM; in assay [3], 314 nM; with phospho FLT3 it was greater than 10000 nM. The molecule also gave an IC50 in the assay on phospho BAD of 1860 nM.
Regarding `CCN(CC)CCC(=O)Nc1cccc(-c2ccc(/C=C3/C(=O)Nc4ccccc43)o2)c1` [drawing 235], the IC50 came to 259 nM at recombinant PIM-1 (setting [11]); 472 nM with K-562 (setting [8]); 101 nM in [1] (setting [9]); 3930 nM in assay [2] (Table 4, read-out: AB: PC3); 349 nM in the assay with MV-4-11 (setting [10]); 3770 nM in the assay on THP-1. Moreover, the IC50 in the assay on phospho FLT3 was greater than 10000 nM; in the assay on phospho BAD it was 1410 nM.
Regarding `O=C(CN1CCCC1)Nc1cccc(-c2ccc(/C=C3/C(=O)Nc4ccccc43)o2)c1` [drawing 236], the IC50 at recombinant PIM-1 (setting [11]) was 549 nM; in the assay on K-562 (setting [8]) it was 1370 nM; in assay [1] (setting [9]), greater than 10000 nM; in assay [2] (Table 4, read-out: AB: PC3) it was 1350 nM; in the assay with MV-4-11 (setting [10]), 350 nM; with THP-1, 3860 nM. Moreover, the results for the IC50 in the assay on phospho FLT3 and in the assay with phospho BAD were greater than 10000 nM and 2130 nM, respectively.
